From patent publication US8980077B2, “Plating bath and method” (Rohm and Haas Electronic Materials LLC, priority 2012, dated 2015) come the findings set out here.

Molecules are shown by their SMILES. Converted amounts (≈) assume the structure as drawn.

Data set [1] can be described thus: Solubility in 17% methane sulfonic acid (MSA)/DI water solution. Conditions: aqueous with cosolvent or surfactant or cyclodextrin, thermodynamic from solid.
Procedure: (§2) If a compound dissolved, then an additional 25 mg (in increments) of that compound was added until either no more would dissolve or 250 mg were dissolved in the 5 mL.
A short description of data set [2]: Stability Test 1: DI water solution plus aqueous MSA (70%), 50° C. oven, visual inspection for precipitate. Format: physicochemical. Particulars: 5.96 mg/mL in DI water plus aqueous MSA (70%). On the procedure: (§1) The stability of Compound 6 and Comparative 1 were determined using 2 different tests. In Test 1, solutions of each of Compound 6 and Comparative 1 dissolved in DI water (at a concentration of 5.96 mg/mL) were placed in separate vials. To each vial was added aqueous MSA (70%), the vials were then capped, placed in a 50° C. oven, and periodically visually inspected for the formation of precipitate. […] In Test 2, solutions of each of Compound 6 and Comparative 1 dissolved in D2O (at a concentration of 5.96 mg/mL) were placed in separate NMR tubes. A ^1H NMR (400 MHz) spectrum was obtained for each solution. Next, a solution of MSA (70%) dissolved in D2O was prepared and added to each NMR tube. A second ^1H NMR spectrum was immediately taken of each sample. Next, the NMR tubes were placed in a 50° C. oven, and periodically removed, analyzed by ^1H NMR, and returned to the oven.

The nature of data set [3]: Extended storage or long-term use in tin-silver electroplating bath (prior-art complexers). The data set is classed as physicochemical. From the text: U.S. Pat. No. 6,998,036 discloses an acidic tin-silver alloy electroplating bath containing a certain sulfide or thiol-substituted ether compound.
U.S. Pat. No. 7,628,903 discloses conventional silver and silver-alloy electroplating baths containing certain sulfide compounds. This patent purports that these electroplating baths have good stability.

The nature of data set [4]: Stability Test 2: D2O solution plus MSA (70%), 50° C. oven, 1H NMR. Format: physicochemical. On the procedure: as §1
Data set [5] is described as follows: Stability in 17% MSA/water at 50° C., visual inspection for precipitation. Conditions: for Stability (at 50° C.): 5 mg in 1 mL 17% MSA/water, time without precipitation; for Stability compared with Comparatives 1 and 2: 17% MSA/water.
Procedure: The stability of various compounds was determined as follows: 5 mg of a compound was dissolved into 1 mL of 17% MSA/water solution and placed in a glass vial. Each vial was capped and placed in a dry heating bath at 50° C. for up to three weeks. Each sample was periodically removed from the bath and visually inspected for evidence of precipitation.
The next data set is described as follows: physchem. Particulars: aqueous with cosolvent or surfactant or cyclodextrin, thermodynamic from solid.

Procedure for physchem: as §2

In data set [1], `OCCSCCSCCO` [Comparative 1, 2,2′-[1,2-ethanediylbis(thio)]bis-ethanol, reference compound] showed a solubility of 30 to 35 mg/mL (≈ 165 to 192 mM). Besides, the “Formation of precipitate (Test 1, visual inspection)” value in data set [2] (after 60 hours) is “a copious amount of a white, flocculent precipitate”. Besides, the “Behaviour upon extended storage or long term use in the electroplating bath” value in data set [3] is “polymerize”. For the same molecule, the “Change of 1H NMR spectrum (Test 2)” value in data set [4] (5.96 mg/mL in D2O, immediately upon addition of the MSA solution) is given as “loss of the ^1H NMR spectrum”. In addition, in data set [5], the “Stability (at 50° C.)” value is under 24 h.

Consider `OCCSCSCCO` [Comparative 2, 2,2′-(Methylenebis(sulfanediyl))diethanol, reference compound], for which the solubility in data set [1] was over 50 mg/mL. Also, the “Stability (at 50° C.)” value in data set [5] is under 1 week.

For the molecule `NC(=O)CCSCCSCCC(N)=O` [Compound 1, 3,3′-(Ethane-1,2-diylbis(sulfanediyl))dipropanamide], the solubility in data set [1] was under 5 mg/mL.

Regarding `O=C(O)CCSCCSCCC(=O)O` [Compound 2, 3,3′-(Ethane-1,2-diylbis(sulfanediyl))dipropanoic acid], the solubility in data set [1] was under 5 mg/mL.

`O=C(O)CSCCSCC(=O)O` [Compound 3, 2,2′-(Ethane-1,2-diylbis(sulfanediyl))diacetic acid] had a solubility in data set [1] of 30 mg/mL (≈ 143 mM).

Regarding `O=S(=O)(O)CCSCCSCCS(=O)(=O)O` [Compound 4, 2,2′-(Ethane-1,2-diylbis(sulfanediyl))diethanesulfonic acid], the solubility in data set [1] is over 60 mg/mL.

As for `O=S(=O)(O)CCCSCCSCCCS(=O)(=O)O` [Compound 5, 3,3′-(ethane-1,2-diylbis(sulfanediyl))bis(propane-1-sulfonic acid)], in data set [1], the solubility was over 60 mg/mL.

Take `OCCCSCCSCCCO` [Compound 6, 3,3′-[1,2-Ethanediylbis(thio)]bis-1-propanol]: in data set [2] (after 120 hours), the “Formation of precipitate (Test 1, visual inspection)” value is reported as “no precipitate formation”. The molecule also had a solubility in the data set “physchem” of 5 mg/mL (≈ 23.8 mM). In data set [4] (5.96 mg/mL in D2O plus MSA (70%), 50° C., after 7 days), the “Change of 1H NMR spectrum (Test 2)” value is given as “no change in the ^1H NMR spectrum”. Besides, in data set [5], the “Stability (at 50° C.)” value is over 3 weeks; the “Stability compared with Comparatives 1 and 2” value is “significantly better”.

The molecule `OCCCSCSCCCO` [Compound 7, 3,3′-(Methylenebis(sulfanediyl))dipropanol] gave a solubility in data set [1] of over 50 mg/mL. Further, in data set [5], the “Stability (at 50° C.)” value is on record as over 3 weeks; the “Stability compared with Comparatives 1 and 2” value was “significantly better”.

In data set [1], `O=C(O)CSCSCC(=O)O` [Compound 8, 2,2′-(Methylenebis(sulfanediyl))diacetic acid] registered a solubility of over 50 mg/mL. For the same molecule, the “Stability (at 50° C.)” value in data set [5] is given as over 3 weeks.

In the case of `O=C(O)CC(SCSC(CC(=O)O)C(=O)O)C(=O)O` (stereo not drawn) [Compound 9, 2,2′-(Methylenebis(sulfanediyl))disuccinic acid], the solubility in data set [1] is about 10 mg/mL (≈ 32 mM). The “Stability (at 50° C.)” value in data set [5] is given as over 3 weeks.

The molecule `O=C(O)CSCCCSCC(=O)O` [Compound 10, 2,2′-(Propane-1,3-diylbis(sulfanediyl))diacetic acid] returned a solubility in data set [1] of over 50 mg/mL. In data set [5], the “Stability (at 50° C.)” value is over 3 weeks.

Molecule `O=S(=O)(O)CCSCCCSCCS(=O)(=O)O` [Compound 11, 2,2′-(Propane-1,3-diylbis(sulfanediyl))diethyl sulfonate] returned a solubility in data set [1] of over 50 mg/mL. Besides, in data set [5], the “Stability (at 50° C.)” value was over 3 weeks.

In data set [1], `O=S(=O)(O)CCCSCCCSCCCS(=O)(=O)O` [Compound 12, 3,3′-(Propane-1,3-diylbis(sulfanediyl))dipropyl sulfonate] came in with a solubility of over 50 mg/mL. Moreover, the “Stability (at 50° C.)” value in data set [5] is given as over 3 weeks.
